Assay results from US20260297080A1, “BICYCLIC COMPOUNDS AS CDK INHIBITORS” (BeOne Medicines I GmbH, priority 2022, published 2026).

Columns and labels:
CDK1/Cyclin B1 = CDK1/Cyclin B1 (Homo sapiens, UniProt P06493); experiment: CDK1/Cyclin B1 Biochemical Assay (TR-FRET), 0.015 mM ATP; conditions: 0.15 μM Rb (Ser780)-biotin substrate, pH7.0, 60 min preincubation, 120 min reaction, room temperature
Summary of the method: (§1)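 Kinase preincubated with compound (0–10 μM) 60 min at room temperature, then reaction started with ATP and 0.15 μM Rb (Ser780)-biotin peptide and run 120 min in HEPES pH 7.0 buffer with 50 mM MgCl2. Phospho-Rb detected by Eu-cryptate anti-pRb(Ser780)/streptavidin-XL665 TR-FRET (665/620 nm ratio); IC50 from four-parameter logistic fit.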

CDK2/Cyclin E1 = CDK2/Cyclin E1 (Homo sapiens, UniProt P24941); experiment: CDK2/Cyclin E1 Biochemical Assay (TR-FRET), 0.060 mM ATP; conditions: 0.15 μM Rb (Ser780)-biotin substrate, pH7.0, 60 min preincubation, 120 min reaction, room temperature
Summary of the method: as §1

CDK1/Cyclin B1, sequence (P06493 whole entry): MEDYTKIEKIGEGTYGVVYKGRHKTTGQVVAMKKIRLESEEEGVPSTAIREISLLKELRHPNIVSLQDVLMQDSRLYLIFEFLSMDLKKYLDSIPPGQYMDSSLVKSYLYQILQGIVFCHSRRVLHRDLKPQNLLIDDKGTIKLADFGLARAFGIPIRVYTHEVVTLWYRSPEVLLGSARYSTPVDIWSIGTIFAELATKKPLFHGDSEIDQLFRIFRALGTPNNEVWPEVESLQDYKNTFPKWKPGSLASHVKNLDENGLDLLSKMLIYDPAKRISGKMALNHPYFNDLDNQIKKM
CDK1/Cyclin B1, sequence (P14635 whole entry partner): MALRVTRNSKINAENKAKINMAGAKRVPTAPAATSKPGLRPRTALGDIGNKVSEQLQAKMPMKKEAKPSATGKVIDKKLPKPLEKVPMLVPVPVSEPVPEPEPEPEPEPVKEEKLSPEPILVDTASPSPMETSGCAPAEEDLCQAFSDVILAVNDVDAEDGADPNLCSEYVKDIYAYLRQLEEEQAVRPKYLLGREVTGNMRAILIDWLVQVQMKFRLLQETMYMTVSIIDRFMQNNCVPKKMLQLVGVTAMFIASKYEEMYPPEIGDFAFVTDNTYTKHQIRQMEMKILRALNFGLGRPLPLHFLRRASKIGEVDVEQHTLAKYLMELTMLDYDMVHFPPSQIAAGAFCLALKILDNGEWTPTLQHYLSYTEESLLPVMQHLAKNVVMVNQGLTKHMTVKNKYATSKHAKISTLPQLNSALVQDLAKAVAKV

| Structure (SMILES) | IC50 (CDK1/Cyclin B1) [nM] | IC50 (CDK2/Cyclin E1) [nM] |
| --- | --- | --- |
| CC1(NC(=O)O[C@H]2CC[C@@H](c3cc(Nc4ccc5c(c4F)CS(=O)(=O)N5CC(F)(F)F)n[nH]3)C2)CC1 (single isomer, unassigned) [Example 264b, cis-3-(3-((4-fluoro-2,2-dioxido-1-(2,2,2-trifluoroethyl)-1,3-dihydrobenzo[c]isothiazol-5-yl)amino)-1H-pyrazol-5-yl)cyclopentyl(1-methylcyclopropyl)carbamate] | 22 | 1.1 |
| CC[C@H](C)NC(=O)O[C@H]1CC[C@@H](c2cc(Nc3ccc4c(c3F)CS(=O)(=O)N4CC(F)(F)F)n[nH]2)C1 (single isomer, unassigned) [Example 265a] | 41 | 1.6 |
| CC[C@H](C)NC(=O)O[C@H]1CC[C@@H](c2cc(Nc3ccc4c(c3F)CS(=O)(=O)N4CC(F)(F)F)n[nH]2)C1 (single isomer, unassigned) [Example 265b] | 26 | 2.4 |
| [2H]C([2H])([2H])N1c2ccc(Nc3cc([C@@H]4CC[C@H](OC(=O)NCCC)C4)[nH]n3)c(F)c2CS1(=O)=O (single isomer, unassigned) [Example 268a, cis-3-(3-((4-fluoro-1-(methyl-d3)-2,2-dioxido-1,3-dihydrobenzo[c]isothiazol-5-yl)amino)-1H-pyrazol-5-yl)cyclopentyl propylcarbamate] | 285 | 14 |
| [2H]C([2H])([2H])N1c2ccc(Nc3cc([C@@H]4CC[C@H](OC(=O)NCCC)C4)[nH]n3)c(F)c2CS1(=O)=O (single isomer, unassigned) [Example 268b, cis-3-(3-((4-fluoro-1-(methyl-d3)-2,2-dioxido-1,3-dihydrobenzo[c]isothiazol-5-yl)amino)-1H-pyrazol-5-yl)cyclopentyl propylcarbamate] | 75 | 4 |
| CC(C)NC(=O)O[C@H]1CC[C@@H](c2cc(Nc3ccc4c(c3F)CS(=O)(=O)N4CCO)n[nH]2)C1 (single isomer, unassigned) [Example 271a, cis-3-(3-((4-fluoro-1-(2-hydroxyethyl)-2,2-dioxido-1,3-dihydrobenzo[c]isothiazol-5-yl)amino)-1H-pyrazol-5-yl)cyclopentyl isopropylcarbamate] | 172 | 3.2 |
| CC(C)NC(=O)O[C@H]1CC[C@@H](c2cc(Nc3ccc4c(c3F)CS(=O)(=O)N4CCO)n[nH]2)C1 (single isomer, unassigned) [Example 271b, cis-3-(3-((4-fluoro-1-(2-hydroxyethyl)-2,2-dioxido-1,3-dihydrobenzo[c]isothiazol-5-yl)amino)-1H-pyrazol-5-yl)cyclopentyl isopropylcarbamate] | 49 | 1.8 |
| CCCNC(=O)O[C@H]1CC[C@@H](c2cc(Nc3ccc4c(c3F)CS(=O)(=O)N4CCO)n[nH]2)C1 (single isomer, unassigned) [Example 272a, cis-3-(3-((4-fluoro-1-(2-hydroxyethyl)-2,2-dioxido-1,3-dihydrobenzo[c]isothiazol-5-yl)amino)-1H-pyrazol-5-yl)cyclopentyl propylcarbamate] | 146 | 15.5 |
| CCCNC(=O)O[C@H]1CC[C@@H](c2cc(Nc3ccc4c(c3F)CS(=O)(=O)N4CCO)n[nH]2)C1 (single isomer, unassigned) [Example 272b, cis-3-(3-((4-fluoro-1-(2-hydroxyethyl)-2,2-dioxido-1,3-dihydrobenzo[c]isothiazol-5-yl)amino)-1H-pyrazol-5-yl)cyclopentyl propylcarbamate] | 59 | 3 |
| CC(C)NC(=O)O[C@H]1CC[C@@H](c2cc(Nc3ccc4c(c3F)CS(=O)(=O)N4C3CC3)n[nH]2)C1 (single isomer, unassigned) [Example 275a, cis-3-(3-((1-cyclopropyl-4-fluoro-2,2-dioxido-1,3-dihydrobenzo[c]isothiazol-5-yl)amino)-1H-pyrazol-5-yl)cyclopentyl isopropylcarbamate] | 398 | 8.4 |
| CC(C)NC(=O)O[C@H]1CC[C@@H](c2cc(Nc3ccc4c(c3F)CS(=O)(=O)N4C3CC3)n[nH]2)C1 (single isomer, unassigned) [Example 275b, cis-3-(3-((1-cyclopropyl-4-fluoro-2,2-dioxido-1,3-dihydrobenzo[c]isothiazol-5-yl)amino)-1H-pyrazol-5-yl)cyclopentyl isopropylcarbamate] | 160 | 3.1 |
| CC(C)NC(=O)O[C@H]1CC[C@@H](c2cc(Nc3cc4c(cc3F)NS(=O)(=O)C4)n[nH]2)C1 (single isomer, unassigned) [Example 292a, cis-3-(3-((6-fluoro-2,2-dioxido-1,3-dihydrobenzo[c]isothiazol-5-yl)amino)-1H-pyrazol-5-yl)cyclopentyl isopropylcarbamate] | 1410 | 13 |
| CC(C)NC(=O)O[C@H]1CC[C@@H](c2cc(Nc3cc4c(cc3F)NS(=O)(=O)C4)n[nH]2)C1 (single isomer, unassigned) [Example 292b, cis-3-(3-((6-fluoro-2,2-dioxido-1,3-dihydrobenzo[c]isothiazol-5-yl)amino)-1H-pyrazol-5-yl)cyclopentyl isopropylcarbamate] | 457 | 5.2 |
| CC(C)NC(=O)O[C@H]1CC[C@@H](c2cc(Nc3cc4c(cc3F)N(CCO)S(=O)(=O)C4)n[nH]2)C1 (single isomer, unassigned) [Example 296a, cis-3-(3-((6-fluoro-1-(2-hydroxyethyl)-2,2-dioxido-1,3-dihydrobenzo[c]isothiazol-5-yl)amino)-1H-pyrazol-5-yl)cyclopentyl isopropylcarbamate] | 800 | 15 |
| CC(C)NC(=O)O[C@H]1CC[C@@H](c2cc(Nc3cc4c(cc3F)N(CCO)S(=O)(=O)C4)n[nH]2)C1 (single isomer, unassigned) [Example 296b, cis-3-(3-((6-fluoro-1-(2-hydroxyethyl)-2,2-dioxido-1,3-dihydrobenzo[c]isothiazol-5-yl)amino)-1H-pyrazol-5-yl)cyclopentyl isopropylcarbamate] | 497 | 8.4 |

Next, values leading:

| IC50 (CDK1/Cyclin B1) [nM] | IC50 (CDK2/Cyclin E1) [nM] | Structure (SMILES) |
| --- | --- | --- |
| 142 | 7.8 | [2H]C([2H])([2H])N1c2ccc(Nc3cc([C@@H]4CC[C@H](OC(=O)NC(C)C)C4)[nH]n3)c(F)c2CS1(=O)=O (single isomer, unassigned) [Example 267a, cis-3-(3-((4-fluoro-1-(methyl-d3)-2,2-dioxido-1,3-dihydrobenzo[c]isothiazol-5-yl)amino)-1H-pyrazol-5-yl)cyclopentyl isopropylcarbamate] |
| 73 | 6.4 | [2H]C([2H])([2H])N1c2ccc(Nc3cc([C@@H]4CC[C@H](OC(=O)NC(C)C)C4)[nH]n3)c(F)c2CS1(=O)=O (single isomer, unassigned) [Example 267b, cis-3-(3-((4-fluoro-1-(methyl-d3)-2,2-dioxido-1,3-dihydrobenzo[c]isothiazol-5-yl)amino)-1H-pyrazol-5-yl)cyclopentyl isopropylcarbamate] |
| 196 | 10 | [2H]C([2H])([2H])N1c2c(F)cc(Nc3cc([C@@H]4CC[C@H](OC(=O)NC(C)C)C4)[nH]n3)cc2CS1(=O)=O (single isomer, unassigned) [Example 289a, cis-3-(3-((7-fluoro-1-(methyl-d3)-2,2-dioxido-1,3-dihydrobenzo[c]isothiazol-5-yl)amino)-1H-pyrazol-5-yl)cyclopentyl isopropylcarbamate] |
| 116 | 12 | [2H]C([2H])([2H])N1c2c(F)cc(Nc3cc([C@@H]4CC[C@H](OC(=O)NC(C)C)C4)[nH]n3)cc2CS1(=O)=O (single isomer, unassigned) [Example 289b, cis-3-(3-((7-fluoro-1-(methyl-d3)-2,2-dioxido-1,3-dihydrobenzo[c]isothiazol-5-yl)amino)-1H-pyrazol-5-yl)cyclopentyl isopropylcarbamate] |
| 356 | 16 | [2H]C([2H])([2H])N1c2c(F)cc(Nc3cc([C@@H]4CC[C@H](OC(=O)NCCC)C4)[nH]n3)cc2CS1(=O)=O (single isomer, unassigned) [Example 290a, cis-3-(3-((7-fluoro-1-(methyl-d3)-2,2-dioxido-1,3-dihydrobenzo[c]isothiazol-5-yl)amino)-1H-pyrazol-5-yl)cyclopentyl propylcarbamate] |
| 94 | 7.5 | [2H]C([2H])([2H])N1c2c(F)cc(Nc3cc([C@@H]4CC[C@H](OC(=O)NCCC)C4)[nH]n3)cc2CS1(=O)=O (single isomer, unassigned) [Example 290b, cis-3-(3-((7-fluoro-1-(methyl-d3)-2,2-dioxido-1,3-dihydrobenzo[c]isothiazol-5-yl)amino)-1H-pyrazol-5-yl)cyclopentyl propylcarbamate] |
| 76 | 2 | [2H]C([2H])([2H])N1c2c(F)cc(Nc3cc([C@@H]4CC[C@H](OC(=O)NC5(C)CC5)C4)[nH]n3)cc2CS1(=O)=O (single isomer, unassigned) [Example 291a, cis-3-(3-((7-fluoro-1-(methyl-d3)-2,2-dioxido-1,3-dihydrobenzo[c]isothiazol-5-yl)amino)-1H-pyrazol-5-yl)cyclopentyl(1-methylcyclopropyl)carbamate] |
| 48 | 1.3 | [2H]C([2H])([2H])N1c2c(F)cc(Nc3cc([C@@H]4CC[C@H](OC(=O)NC5(C)CC5)C4)[nH]n3)cc2CS1(=O)=O (single isomer, unassigned) [Example 291b, cis-3-(3-((7-fluoro-1-(methyl-d3)-2,2-dioxido-1,3-dihydrobenzo[c]isothiazol-5-yl)amino)-1H-pyrazol-5-yl)cyclopentyl(1-methylcyclopropyl)carbamate] |
